Reference: patent publication US10548942B2, “CXCR antagonistic peptides and uses thereof” (STC.UNM, priority 2013, dated 2020)
“Also recorded” adds a separate entry of the source.

Tests used:
CXCR2 receptor = target: T1, CXCR2 receptor (Rattus norvegicus, UniProt P35407); assay: ac-PGP-induced apoptosis in primary cortical neurons, TUNEL stain; assay type: cell-based
T1 construct: endogenous in cells; host or cells: primary cortical neurons from Sprague-Dawley rat embryos (E18)
T1 sequence (P35407 1-359): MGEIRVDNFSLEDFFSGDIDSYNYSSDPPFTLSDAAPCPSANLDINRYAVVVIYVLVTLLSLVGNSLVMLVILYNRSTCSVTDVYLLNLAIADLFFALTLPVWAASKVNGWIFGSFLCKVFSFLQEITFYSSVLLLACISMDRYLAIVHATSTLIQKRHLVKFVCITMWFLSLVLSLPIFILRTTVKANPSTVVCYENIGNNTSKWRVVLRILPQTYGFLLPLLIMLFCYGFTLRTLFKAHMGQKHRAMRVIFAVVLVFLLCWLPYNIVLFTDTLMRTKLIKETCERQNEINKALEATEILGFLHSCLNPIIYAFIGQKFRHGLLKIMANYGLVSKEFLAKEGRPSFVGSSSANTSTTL
Description: First, the mechanism by which ac-PGP induces apoptosis in cortical neurons was investigated. Because ac-PGP is reported to engage neutrophil CXCR2 receptors, whether an established CXCR2 receptor antagonist, SB225002, could influence ac-PGP neurotoxicity was tested.
Cortical neurons were obtained from Sprague-Dawley rat embryos at day 18 of gestation. Cortices were triturated digested with 0.025% trypsin in phosphate buffer saline (PBS) for 10 minutes. Digestion was stopped by the addition of Dulbecco's Modified Eagle Medium (DMEM) containing 10% fetal bovine serum (FBS). Trypsinized cells were filtered using […] disposable cell filters (Becton-Dickinson), washed twice with Neurobasal medium (Gibco) containing 4% FBS, and preplated 4 times for 30 minutes in 150 mm vacuum-plasma treated dishes (Becton-Dickinson). During these preplating steps, primarily non-neuronal cells adhere to the dish, thereby enriching the neuronal population. […] At 7 DIV, cortical cultures were 98% neurons as assessed by microtubule-associated protein 2 (MAP2) antibody labeling and flow cytometry analysis (data not shown). […]
Cortical neurons were obtained from Sprague-Dawley rat embryos at day 18 of gestation. […] At 7 DIV, cortical cultures were 98% neurons as assessed by microtubule-associated protein 2 (MAP2) antibody labeling and flow cytometry analysis (data not shown).

cortical neurons = assay: oxygen-glucose deprivation (OGD) model of stroke in primary neurons; assay type: cell-based, rat; settings: for protection from OGD: treatment at reoxygenation or 5, 15, 30, or 60 minutes after reoxygenation, vs vehicle
Description: Cortical neurons were obtained from Sprague-Dawley rat embryos at day 18 of gestation. Cortices were triturated digested with 0.025% trypsin in phosphate buffer saline (PBS) for 10 minutes. Digestion was stopped by the addition of Dulbecco's Modified Eagle Medium (DMEM) containing 10% fetal bovine serum (FBS). Trypsinized cells were filtered using […] disposable cell filters (Becton-Dickinson), washed twice with Neurobasal medium (Gibco) containing 4% FBS, and preplated 4 times for 30 minutes in 150 mm vacuum-plasma treated dishes (Becton-Dickinson). During these preplating steps, primarily non-neuronal cells adhere to the dish, thereby enriching the neuronal population. Enriched neurons were plated at a density of 50×10^3/cm2 in Neurobasal medium containing 4% FBS, 25 μM Glutamax (Gibco), and penicillin-streptomycin (Gibco) in while clear-bottomed 96-well plates (353377) or 24-well plates (353226) (Becton-Dickinson) coaled overnight with 50 μg/ml poly-D-lysine. At plating, spaces between wells in 96-well plates were filled with 50 μl sterile water to minimize evaporation of medium at the edges of the dish. Twenty-four hours later (1 day in vitro, 1 DIV), 50% of the medium was replaced with Neurobasal medium, 2% B27 (Gibco), and 4 μM cytosine arabinoside (AraC) (2 μM AraC final). At 5 DIV, 50% of the medium was replaced with Neurobasal, 2% B27. At 7 DIV, cortical cultures were 98% neurons as assessed by microtubule-associated protein 2 (MAP2) antibody labeling and flow cytometry analysis (data not shown).
Cortical neurons were deprived of oxygen and glucose by incubation in deoxygenated glucose-free Hank's buffered saline solution (HBSS). HBSS was prepared as follows: sodium chloride, NaCl, 8.0 g/L, potassium chloride, KCl, 0.4 g/L, potassium phosphate monobasic, KH2PO4, 0.06 g/L, sodium phosphate dibasic, Na2HPO4, 0.048 g/L, magnesium sulfate. MgSO4, 0.098 g/L, calcium chloride, CaCl2, 0.14 g/L, sodium bicarbonate, NaHCO3, 0.35 g/L, D-glucose, C6H12O6, 1.0 g/L. Solutions were adjusted to pH 7.4 and sterilized by vacuum filtration through 0.2 μm polyether sulfone (PES) membranes. Glucose-free HBSS was prepared by omitting glucose and adding an additional half molar amount of NaCl to adjust osmolarity (8.162 g/L NaCl). Glucose-free HBSS was deoxygenated in a gas washing bottle with 95% nitrogen, 5% CO2 for 20 minutes at a flow rate of 3 L/min in a 37° C. water bath. Culture dishes were washed twice with deoxygenated glucose-free HBSS and incubated for 2 hours in glucose-free deoxygenated HBSS (OGD). Normoxic control cells were handled identically but were incubated in a 5% CO2 incubator with normal HBSS pre-equilibrated in a 5% CO2 atmosphere overnight. […]

Question: With O=C(Nc1ccc([N+](=O)[O-])cc1O)Nc1ccccc1Br [SB225002] as the compound, how does the “ac-PGP-induced apoptosis (TUNEL stain), dose comparison” value (CXCR2 receptor; 1 nM vs 0.01 and 0.1 nM) read?
Answer: The value was “significantly less apoptotic”.

Question: And the “ac-PGP-induced apoptosis (TUNEL stain)” value (CXCR2 receptor; pretreatment of primary cortical neurons before ac-PGP exposure, all doses, vs ac-PGP alone)?
Answer: The value was “significantly less apoptotic; also recorded: blocked ac-PGP neurotoxicity”.

Question: What about the “neuronal protection compared to administration at reoxygenation” value (cortical neurons; administered at 15 minutes post-reoxygenation) of the same compound?
Answer: Its value is “significantly decreased; also recorded: significantly declined”.

Question: And the “apoptosis after 2-hour OGD” value (cortical neurons; pretreatment, 24-hour reoxygenation, vs vehicle-treated controls)?
Answer: The value was “significantly less apoptotic; also recorded: significant protection from OGD”.

Question: What about the “protection from OGD” value (cortical neurons) of the same compound?
Answer: The value was “significant protection”.

Question: What about the “protection from OGD” value (cortical neurons; listed as SB2225002) of the same compound?
Answer: Its value is “provided neuroprotection”.
